Reference: patent US10765114B2, “4-amino-6-(pyridyl and 2-substitutedphenyl)-picolinates and 6-amino-2-(pyridyl and 2-substitutedphenyl)-pyrimidine-4-carboxylates and their use as herbicides” (Dow AgroSciences LLC, priority 2013, dated 2020)
Where two headings read alike, the source gives them in different places.

Tests used:
[1] = test system: Key Grass and Sedge Weeds as well as Grass Crops; assay: Post-Emergent Test II (Table 6); format: in vivo; conditions: post-emergence, 336 h, 14 days after application; for pest or weed control at 70 g/ha: 70 g ai/ha; for pest or weed control at 140 g/ha: 140 g ai/ha
Outline: (§1)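 Plants at first or second true-leaf stage, grown 7-21 days in greenhouse, were sprayed post-emergence at 187 L/ha with compounds in acetone/DMSO/water/crop oil/surfactant mixture at the high rate and ½× to 1/16× dilutions. Injury scored visually after 14 days, 0 (none) to 100% (complete kill), versus untreated plants.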

[2] = test system: Key Broadleaf Weed and Crop Species; assay: Post-Emergent Test II (Table 5); format: in vivo; conditions: post-emergence, 336 h; for pest or weed control at 70 g/ha: application rate 70 (kg ai/ha; footnote: g ai/ha); for pest or weed control at 140 g/ha: application rate 140 (kg ai/ha; footnote: g ai/ha)
Outline: as §1

[3] = CYPSS, read-out: Visual Growth Reduction (%) 14 Days After Application CYPSS
[4] = DIGSA: crabgrass (Digitaria sanguinalis), read-out: Visual Growth Reduction (%) 14 Days After Application DIGSA
[5] = ECHSS, read-out: Visual Growth Reduction (%) 14 Days After Application ECHSS
[6] = ORYSS (crop), read-out: Visual Growth Reduction (%) 14 Days After Application ORYSS
[7] = SETFA: giant foxtail (Setaria faberi), read-out: Visual Growth Reduction (%) 14 Days After Application SETFA
[8] = SORVU: grain sorghum (Sorghum vulgare), read-out: Visual Growth Reduction (%) 14 Days After Application SORVU
[9] = TRZSS (crop), read-out: Visual Growth Reduction (%) 14 Days After Application TRZSS
[10] = ZEAMX: maize, corn (Zea mays), read-out: Visual Growth Reduction (%) 14 Days After Application ZEAMX
[11] = Abutilon theophrasti, ABUTH: velvetleaf (Abutilon theophrasti), read-out: Visual Growth Reduction (%) 14 Days After Application ABUTH
[12] = Amaranthus retroflexus, AMARE: redroot pigweed (Amaranthus retroflexus), read-out: Visual Growth Reduction (%) 14 Days After Application AMARE
[13] = Brassica napus, BRSSS: oilseed rape, canola (Brassica napus), read-out: Visual Growth Reduction (%) 14 Days After Application BRSSS
[14] = Chenopodium album, CHEAL: lambsquarters (Chenopodium album), read-out: Visual Growth Reduction (%) 14 Days After Application CHEAL
[15] = Euphorbia heterophylla, EPHHL: wild poinsettia (Euphorbia heterophylla), read-out: Visual Growth Reduction (%) 14 Days After Application EPHHL
[16] = Helianthus annuus, HELAN: sunflower (Helianthus annuus), read-out: Visual Growth Reduction (%) 14 Days After Application HELAN
[17] = Viola tricolor, VIOTR: wild pansy (Viola tricolor), read-out: Visual Growth Reduction (%) 14 Days After Application VIOTR

COC(=O)c1nc(-c2ccc(I)c(F)c2C)cc(N)c1Cl [Compound 25, methyl 4-amino-3-chloro-6-(3-fluoro-4-Iodo-2-methylphenyl)picolinate]
0 to 29%: pest or weed control at 70 g/ha [1, 3] | pest or weed control at 140 g/ha [1, 3] | pest or weed control at 70 g/ha [1, 4] | pest or weed control at 140 g/ha [1, 4] | pest or weed control at 70 g/ha [1, 5] | pest or weed control at 140 g/ha [1, 5] | pest or weed control at 70 g/ha [1, 6] | pest or weed control at 140 g/ha [1, 6] | pest or weed control at 70 g/ha [1, 7] | pest or weed control at 140 g/ha [1, 7] | pest or weed control at 70 g/ha [1, 8] | pest or weed control at 140 g/ha [1, 8] | pest or weed control at 70 g/ha [1, 9] | pest or weed control at 140 g/ha [1, 9] | pest or weed control at 70 g/ha [1, 10] | pest or weed control at 140 g/ha [1, 10] | pest or weed control at 70 g/ha [2, 15] | pest or weed control at 140 g/ha [2, 15] | pest or weed control at 70 g/ha [2, 17] | pest or weed control at 140 g/ha [2, 17]
95 to 100%: pest or weed control at 70 g/ha [2, 11] | pest or weed control at 140 g/ha [2, 11] | pest or weed control at 70 g/ha [2, 12] | pest or weed control at 140 g/ha [2, 12]
75 to 84%: pest or weed control at 140 g/ha [2, 13] | pest or weed control at 140 g/ha [2, 16]
85 to 94%: pest or weed control at 70 g/ha [2, 14] | pest or weed control at 140 g/ha [2, 14]
60 to 74%: pest or weed control at 70 g/ha [2, 13] | pest or weed control at 70 g/ha [2, 16]

COC(=O)c1nc(-c2ccc(C(F)(F)F)nc2)cc(N)c1Cl [Compound 4]
95 to 100%: pest or weed control at 140 g/ha [2, 12]
30 to 44%: pest or weed control at 70 g/ha [1, 5] | pest or weed control at 70 g/ha [2, 13]
60 to 74%: pest or weed control at 70 g/ha [1, 3] | pest or weed control at 140 g/ha [1, 3] | pest or weed control at 140 g/ha [1, 8] | pest or weed control at 140 g/ha [2, 13] | pest or weed control at 70 g/ha [2, 16]
0 to 29%: pest or weed control at 70 g/ha [1, 4] | pest or weed control at 140 g/ha [1, 4] | pest or weed control at 70 g/ha [1, 6] | pest or weed control at 140 g/ha [1, 6] | pest or weed control at 70 g/ha [1, 7] | pest or weed control at 140 g/ha [1, 7] | pest or weed control at 70 g/ha [1, 9] | pest or weed control at 140 g/ha [1, 9] | pest or weed control at 70 g/ha [1, 10] | pest or weed control at 140 g/ha [1, 10] | pest or weed control at 70 g/ha [2, 17] | pest or weed control at 140 g/ha [2, 17]
85 to 94%: pest or weed control at 70 g/ha [2, 12] | pest or weed control at 140 g/ha [2, 14] | pest or weed control at 140 g/ha [2, 15]
75 to 84%: pest or weed control at 140 g/ha [1, 5] | pest or weed control at 70 g/ha [2, 11] | pest or weed control at 140 g/ha [2, 11] | pest or weed control at 70 g/ha [2, 14] | pest or weed control at 70 g/ha [2, 15] | pest or weed control at 140 g/ha [2, 16]
45 to 59%: pest or weed control at 70 g/ha [1, 8]

Cc1c(-c2nc(C(=O)O)c(Cl)c(N)c2F)ccc(Cl)c1F [Compound 67]
95 to 100%: pest or weed control at 70 g/ha [2, 12] | pest or weed control at 140 g/ha [2, 12] | pest or weed control at 70 g/ha [2, 13] | pest or weed control at 140 g/ha [2, 13] | pest or weed control at 70 g/ha [2, 14] | pest or weed control at 140 g/ha [2, 14] | pest or weed control at 70 g/ha [2, 16] | pest or weed control at 140 g/ha [2, 16]
0 to 29%: pest or weed control at 70 g/ha [1, 3] | pest or weed control at 140 g/ha [1, 3] | pest or weed control at 70 g/ha [1, 4] | pest or weed control at 140 g/ha [1, 4] | pest or weed control at 70 g/ha [1, 5] | pest or weed control at 140 g/ha [1, 5] | pest or weed control at 70 g/ha [1, 6] | pest or weed control at 140 g/ha [1, 6] | pest or weed control at 70 g/ha [1, 7] | pest or weed control at 140 g/ha [1, 7] | pest or weed control at 70 g/ha [1, 8] | pest or weed control at 140 g/ha [1, 8] | pest or weed control at 70 g/ha [1, 9] | pest or weed control at 140 g/ha [1, 9] | pest or weed control at 70 g/ha [1, 10] | pest or weed control at 140 g/ha [1, 10] | pest or weed control at 70 g/ha [2, 15] | pest or weed control at 140 g/ha [2, 15] | pest or weed control at 70 g/ha [2, 17] | pest or weed control at 140 g/ha [2, 17]
85 to 94%: pest or weed control at 70 g/ha [2, 11] | pest or weed control at 140 g/ha [2, 11]

Cc1c(-c2nc(C(=O)O)c(Cl)c(N)c2F)ccc(C(F)(F)F)c1F [Compound 55]
30 to 44%: pest or weed control at 70 g/ha [2, 13]
45 to 59%: pest or weed control at 70 g/ha [1, 10] | pest or weed control at 140 g/ha [1, 10] | pest or weed control at 70 g/ha [2, 11] | pest or weed control at 140 g/ha [2, 11] | pest or weed control at 140 g/ha [2, 13] | pest or weed control at 140 g/ha [2, 15]
95 to 100%: pest or weed control at 140 g/ha [2, 16]
85 to 94%: pest or weed control at 140 g/ha [2, 14] | pest or weed control at 70 g/ha [2, 16]
0 to 29%: pest or weed control at 70 g/ha [1, 3] | pest or weed control at 140 g/ha [1, 3] | pest or weed control at 70 g/ha [1, 4] | pest or weed control at 140 g/ha [1, 4] | pest or weed control at 70 g/ha [1, 5] | pest or weed control at 140 g/ha [1, 5] | pest or weed control at 70 g/ha [1, 6] | pest or weed control at 140 g/ha [1, 6] | pest or weed control at 70 g/ha [1, 8] | pest or weed control at 140 g/ha [1, 8] | pest or weed control at 70 g/ha [1, 9] | pest or weed control at 140 g/ha [1, 9] | pest or weed control at 70 g/ha [2, 12] | pest or weed control at 140 g/ha [2, 12] | pest or weed control at 70 g/ha [2, 15] | pest or weed control at 70 g/ha [2, 17] | pest or weed control at 140 g/ha [2, 17]
60 to 74%: pest or weed control at 70 g/ha [2, 14]
